Laboratory results taken from paper PMC11678906, “Evaluation of In Vitro Inhibition of β-Hematin Formation: A Step Towards a Comprehensive Understanding of the Mechanism of Action of New Arylamino Alcohols” (Microorganisms, 2024).
Like-named read-outs stand apart in the source and are kept apart here.

Tests used:
[1] = In vitro cytotoxicity, MTT assay on HepG2; type: cell-based, human; conditions: human, HepG2 cells; MTT, 72 h incubation; mean ± SD of three experiments
Description: (§1) Briefly, in 96-well plates, 100 µL of a cell culture adjusted to 25,000 cells/mL was dispensed and the plates were incubated at 37 °C in a humidified 5% CO2 atmosphere for 24 h to allow the cells to adhere to the bottom of the wells. After microscopic verification of the adherent cells, the culture medium was removed and replaced with 100 μL of medium with the compounds at various concentrations dissolved in DMSO (final concentration less than 0.5% v/v), and the plates were incubated for 72 h at 37 °C. Controls were DMSO in medium (0.5% v/v) without compound as blank. Then, the supernatant from each well was removed prior to the addition of 100 µL of 3-(4,5-dimethyl-2-thiazolyl)-2,5-diphenyl-2H-tetrazolium bromide (MTT) solution (0.5 mg/mL in culture medium) per well. After 2 h of incubation, the supernatant from each well was removed and 100 µL of DMSO was added to dissolve the resulting blue formazan crystals accumulated at the bottom of the wells. The plates were incubated for 5 min at 37 °C in a humidified 5% CO2 atmosphere. Then, the wells were homogenized by shaking the plates for 10 min with a microplate shaker. The absorbance was read using the Tecan’s Sunrise™ absorbance microplate reader at 570 nm with 630 nm as the reference wavelength. […] Selectivity index (SI) was calculated and defined as the ratio between CC50 values on HepG2 and IC50.

HepG2 cell line = assay: In vitro cytotoxicity, MTT assay on HepG2; type: cell-based, human; conditions: for Selectivity Index HepG2/3D7: CC50 on HepG2 / IC50 against Pf3D7; for SI times higher than that of parental drug MQ: versus MQ
Description: as §1

[2] = system: Plasmodium falciparum W2 strain; assay: In vitro antimalarial activity, SYBR Green I fluorescence-based method, PfW2; type: cell-based; conditions: for IC50: Plasmodium falciparum, W2, SYBR Green I, 48 h incubation, CQ-resistant strain, 1a-b re-assayed here, mean ± SD of three experiments; for Eudysmic Ratio PfW2: ratio of IC50s of the enantiomer pair, eutomer configuration in parentheses
From the text: (§2) IC50s, corresponding to in vitro antimalarial activity against PfW2 and Pf3D7, was previously determined for compounds 2a-b, 3a-b and reference molecules using the SYBR Green I fluorescence-based method. As compounds 1a-b were previously screened using the hypoxanthine-tritied method, they were here re-assayed with the SYBR Green I fluorescence-based method described elsewhere for comparison with the other two Series (2 and 3) and reference molecules. When possible, eudysmic ratios were calculated. The SYBR green I fluorescence-based method is detailed below.
(§3) Compounds were dissolved in DMSO and then diluted in sterile water in order to obtain a range of concentrations from 40 nM to […] for the first screening against culture-adapted Plasmodium falciparum reference strains 3D7 and W2. […] These two strains were obtained from the collection of the National Museum of Natural History (Paris, France). The parasites were cultivated in RPMI medium (Sigma-Aldrich, Saint Quentin Fallavier, France) supplemented with 0.5% Albumax I (Life Technologies Corporation, Paisley, UK), hypoxanthine (Sigma-Aldrich, Saint Quentin Fallavier, France) and gentamicin (Sigma-Aldrich, Saint Quentin Fallavier, France) with human erythrocytes and were incubated at 37 °C with 5% CO2 [26]. The P. falciparum drug susceptibility test was carried out in 96-well flat-bottomed sterile plates in a final volume of 250 μL. After a 48 h incubation period with the drugs, quantities of DNA in treated and control cultures of parasites in human erythrocytes were quantified using the SYBR Green I (Sigma-Aldrich, Saint Quentin Fallavier, France) fluorescence-based method. Briefly, after incubation, the plates were frozen at −20 °C until use. The plates were then thawed for 2 h at room temperature, and 100 μL of each homogenized culture was transferred to a well of a 96-well flat-bottomed sterile black plate (Sigma-Aldrich, Saint Quentin Fallavier, France) that contained 100 μL of the SYBR Green I lysis buffer (2xSYBR Green, 20 mM Tris base pH 7.5, 5 mM EDTA, 0.008% w/v saponin, 0.08% w/v Triton X-100). Negative controls treated with solvent (typically DMSO or H2O) and positive controls (CQ and MQ) were added to each set of experiments. Plates were incubated for 1 h at room temperature and then read on a fluorescence plate reader (Tecan Trading AG, Männedorf, Switzerland) using excitation and emission wavelengths of 485 and 535 nm, respectively.

β-hematin formation = assay: Inhibition of β-hematin formation; type: biochemical; conditions: for Inhibition (%) of β-hematin formation at 2 mM: 24 h at 37 °C, versus negative control, mean ± SD of three experiments; for IC50: concentration range 0–2 mM, determined graphically
Description: Briefly, 100 μL of a fresh 6.5 mM solution of hemin (Sigma-Aldrich, SaintQuentin Fallavier, France) dissolved in 0.2 M NaOH was mixed with 100 μL of 3 M sodium acetate, 25 μL of 17.4 M acetic acid and 25 μL of the tested drug or controls (water and MeOH/DMSO). Magnetic stirring of the solution was used to avoid sedimentation. After 24 h incubation at 37 °C under shaking, the supernatant resulting from centrifugation for 15 min at 3300× g was discarded. The pellet was washed twice with 200 μL DMSO. After a final wash with water, the pellet was dissolved in 200 μL with 0.1 M NaOH. After a further 1:30 dilution, absorption at 405 nm was read using a microplate photometer (Multiskan® EX, Thermo Scientific, Waltham, MA, USA). CQ, MQ, ENP (considered as positive controls), water and MeOH/DMSO (considered as negative controls) were included in each experiment. […] Statistical significance was defined as a value of p ≤ 0.05.

[3] = system: Plasmodium falciparum 3D7 strain; assay: In vitro antimalarial activity, SYBR Green I fluorescence-based method, Pf3D7; type: cell-based; conditions: for IC50: Plasmodium falciparum, 3D7, SYBR Green I, 48 h incubation, strain with decreased susceptibility to MQ, 1a-b re-assayed here, mean ± SD of three experiments; for Eudysmic Ratio Pf3D7: ratio of IC50s of the enantiomer pair, eutomer configuration in parentheses
From the text: as §2, §3

[4] = system: Plasmodium falciparum 3D7 strain; set-up: method as in earlier work; conditions: SYBR Green I, strain with decreased susceptibility to MQ; previously determined for 2a-b, 3a-b and reference molecules; read-out: IC50 Pf3D7; cited from earlier work
[5] = system: Plasmodium falciparum W2 strain; set-up: method as in earlier work; conditions: SYBR Green I, CQ-resistant strain; previously determined for 2a-b, 3a-b and reference molecules; read-out: IC50 PfW2; cited from earlier work
hemozoin formation = conditions: according to different studies; cited from earlier work
PfW2 = system: PfW2; set-up: method as in PMID 8513873; conditions: Figure 1; cited from earlier work
PfD6 = system: PfD6; set-up: method as in PMID 8513873; conditions: Figure 1; cited from earlier work
Plasmodium falciparum = system: Plasmodium falciparum; set-up: method as in PMID 8513873; conditions: Figure 1, (S,R) vs (R,S) MQ, (+)- vs (-)-ENP; cited from earlier work

**Q.** Which CC50 at 72 h [1] does the source give for `CCCCNC[C@@H](O)c1cc(C(F)(F)F)nc2c(C(F)(F)F)cccc12` [1a] here?
**A.** 25.6 ± 2.7 µM

**Q.** What about the “Selectivity Index HepG2/3D7” value (HepG2 cell line) of the same compound?
**A.** 1695

**Q.** And the “SI times higher than that of parental drug MQ” value (HepG2 cell line)?
**A.** 15–23 times

**Q.** And the IC50 [2]?
**A.** 0.005 ± 0.0003 µM

**Q.** And the “Eudysmic Ratio PfW2” value [2]?
**A.** 1.46 (S)

**Q.** What about the “Inhibition (%) of β-hematin formation at 2 mM” value (“Inhibition (%)” for short) (β-hematin formation) of the same compound?
**A.** 81.8 ± 8.4%

**Q.** And the IC50 (β-hematin formation)?
**A.** 1170 ± 320 µM

**Q.** And the IC50 [3]?
**A.** 0.0151 ± 0.0033 µM

**Q.** And the “Eudysmic Ratio Pf3D7” value [3]?
**A.** 1

**Q.** Which CC50 at 72 h [1] does the source give for `CCCCNC[C@H](O)c1cc(C(F)(F)F)nc2c(C(F)(F)F)cccc12` [1b] here?
**A.** 37.8 ± 1.9 µM

**Q.** What about the “Selectivity Index HepG2/3D7” value (HepG2 cell line) of the same compound?
**A.** 2503

**Q.** What about the “SI times higher than that of parental drug MQ” value (HepG2 cell line) of the same compound?
**A.** 15–23 times

**Q.** What about the IC50 [2] of the same compound?
**A.** 0.0073 ± 0.0009 µM

**Q.** What about the “Eudysmic Ratio PfW2” value [2] of the same compound?
**A.** 1.46 (S)

**Q.** What about the “Inhibition (%)” value (β-hematin formation) of the same compound?
**A.** 71.3 ± 10.3%

**Q.** And the IC50 (β-hematin formation)?
**A.** 1310 ± 540 µM

**Q.** And the IC50 [3]?
**A.** 0.0151 ± 0.0034 µM

**Q.** What about the “Eudysmic Ratio Pf3D7” value [3] of the same compound?
**A.** 1

**Q.** Which results are given for `CCCCNC[C@@H](O)c1cc(-c2ccc(C(F)(F)F)cc2)nc(C(F)(F)F)c1` [2a]?
**A.** CC50 at 72 h [1]: 4 ± 0.9 µM; Selectivity Index HepG2/3D7 (HepG2 cell line): 87; IC50 [4]: 0.0458 ± 0.0023 µM; Eudysmic Ratio PfW2 [2]: 1.1 (S); IC50 [5]: 0.009 ± 0.0004 µM; Inhibition (%) of β-hematin formation at 2 mM (β-hematin formation): 73.5 ± 18.0%; IC50 (β-hematin formation): 1450 ± 300 µM; Eudysmic Ratio Pf3D7 [3]: 1.2 (S)

**Q.** What does the source list for `CCCCNC[C@H](O)c1cc(-c2ccc(C(F)(F)F)cc2)nc(C(F)(F)F)c1` [2b]?
**A.** CC50 at 72 h [1]: 4 ± 0.7 µM; Selectivity Index HepG2/3D7 (HepG2 cell line): 70; IC50 [4]: 0.0567 ± 0.0048 µM; Eudysmic Ratio PfW2 [2]: 1.1 (S); IC50 [5]: 0.01 ± 0.0007 µM; Inhibition (%) of β-hematin formation at 2 mM (β-hematin formation): 54.0 ± 22.7%; IC50 (β-hematin formation): 1770 ± 220 µM; Eudysmic Ratio Pf3D7 [3]: 1.2 (S)

**Q.** Which CC50 at 72 h [1] does the source give for `CCCCNC[C@@H](O)c1ccc(-c2ccc(C(F)(F)F)cc2)nc1C(F)(F)F` [3a] here?
**A.** 11.6 ± 0.7 µM

**Q.** What about the “Selectivity Index HepG2/3D7” value (HepG2 cell line) of the same compound?
**A.** 24

**Q.** And the IC50 [4]?
**A.** 0.479 ± 0.0382 µM

**Q.** And the IC50 [5]?
**A.** 0.132 ± 0.0103 µM

**Q.** And the “Inhibition (%)” value (β-hematin formation)?
**A.** 48.3 ND ^c %

**Q.** And the IC50 (β-hematin formation)?
**A.** > 2000 µM

**Q.** For `CCCCNC[C@H](O)c1ccc(-c2ccc(C(F)(F)F)cc2)nc1C(F)(F)F` [3b], which CC50 at 72 h [1] is on record?
**A.** > 100 µM

**Q.** What about the “Selectivity Index HepG2/3D7” value (HepG2 cell line) of the same compound?
**A.** >72

**Q.** What about the IC50 [4] of the same compound?
**A.** 1.38 ± 0.993 µM

**Q.** And the “Eudysmic Ratio PfW2” value [2]?
**A.** 4.0 (S)

**Q.** And the IC50 [5]?
**A.** 0.523 ± 0.0958 µM

**Q.** What about the “Inhibition (%)” value (β-hematin formation) of the same compound?
**A.** 40.6 ± 28.3%

**Q.** And the IC50 (β-hematin formation)?
**A.** > 2000 µM

**Q.** What about the “Eudysmic Ratio Pf3D7” value [3] of the same compound?
**A.** 2.9 (S)

**Q.** Which IC50 [4] does the source give for `CCN(CC)CCCC(C)Nc1ccnc2cc(Cl)ccc12` (stereo not drawn) [Chloroquine, chloroquine, reference compound] here?
**A.** 0.0759 ± 0.003 µM

**Q.** What about the IC50 [5] of the same compound?
**A.** 0.199 ± 0.027 µM

**Q.** What about the “inhibition of in vitro hemozoin formation” value (hemozoin formation) of the same compound?
**A.** up to 90%

**Q.** For `OC(c1cc(-c2ccc(C(F)(F)F)cc2)nc(C(F)(F)F)c1)C1CCCCN1` (stereo not drawn) [Enpiroline, enpiroline, reference compound], which CC50 at 72 h [1] is on record?
**A.** 4.4 ± 0.6 µM

**Q.** And the “Selectivity Index HepG2/3D7” value (HepG2 cell line)?
**A.** 204

**Q.** What about the IC50 (PfW2) of the same compound?
**A.** 0.00285 µM

**Q.** What about the IC50 [4] of the same compound?
**A.** 0.0216 ± 0.0014 µM

**Q.** What about the IC50 [5] of the same compound?
**A.** 0.0115 ± 0.0023 µM

**Q.** What about the “Inhibition (%)” value (β-hematin formation) of the same compound?
**A.** 20.3 ND ^c %

**Q.** And the IC50 (β-hematin formation)?
**A.** > 2000 µM

**Q.** What about the IC50 (PfD6) of the same compound?
**A.** 0.0164 µM

**Q.** And the “IC50 ratio between enantiomers” value (Plasmodium falciparum)?
**A.** 1.15–1.22 times

**Q.** With `OC(c1cc(C(F)(F)F)nc2c(C(F)(F)F)cccc12)C1CCCCN1` (stereo not drawn) [Mefloquine, mefloquine, reference compound] as the compound, how does the CC50 at 72 h [1] read?
**A.** 8.6 ± 2.6 µM

**Q.** What about the IC50 (PfW2) of the same compound?
**A.** 0.0039 µM

**Q.** And the IC50 [4]?
**A.** 0.0797 ± 0.0085 µM

**Q.** And the IC50 [5]?
**A.** 0.0318 ± 0.001 µM

**Q.** And the “Inhibition (%)” value (β-hematin formation)?
**A.** 61.3 ± 8.5%

**Q.** What about the IC50 (PfD6) of the same compound?
**A.** 0.0344 µM
